From patent US20250302815A1, “PROTEIN TYROSINE PHOSPHATASE TARGETING LIGANDS” (CALICO LIFE SCIENCES LLC, priority 2021, published 2025)

How the values were obtained:
[1] = target: T1, PTPN2 (HiBIT-PTPN2 in 293T.109 cells) (Homo sapiens, UniProt P17706); test: HiBiT Degradation 293T.109 PTPN2 (Nano-Glo HiBiT Lytic Assay); assay type: cell-based; conditions: 24.0 hours
T1 construct: expressed in transfected cells; host or cells: 293T.109 (293T WT from ATCC)
T1 sequence (P17706 1-415): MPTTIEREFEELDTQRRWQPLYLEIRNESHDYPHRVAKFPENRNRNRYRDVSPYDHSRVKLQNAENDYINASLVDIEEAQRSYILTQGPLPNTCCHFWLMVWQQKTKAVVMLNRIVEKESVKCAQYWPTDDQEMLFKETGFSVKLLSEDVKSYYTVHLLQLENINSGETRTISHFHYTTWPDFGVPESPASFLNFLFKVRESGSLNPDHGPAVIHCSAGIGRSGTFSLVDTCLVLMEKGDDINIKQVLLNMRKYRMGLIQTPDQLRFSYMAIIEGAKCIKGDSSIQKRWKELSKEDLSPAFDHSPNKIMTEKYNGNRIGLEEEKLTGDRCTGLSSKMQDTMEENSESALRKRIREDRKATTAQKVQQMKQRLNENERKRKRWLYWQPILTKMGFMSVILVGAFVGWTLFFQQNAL
Procedure, shortened: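 293T.109 cells with ectopic N-terminal HiBiT-tagged PTPN2 (5000/well) exposed to compounds for 24 h at 37 °C, 5% CO2; 11-point half-log titration from 10 μM top, duplicates. Remaining HiBiT-PTPN2 read as luminescence with Nano-Glo HiBiT lytic reagent, normalised to untreated cells (0%) and reagent-free wells.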

PTPN2 (B16F10.4 cells) = target: T2, PTPN2 (B16F10.4 cells) (Mus musculus, UniProt Q06180); test: HiBiT Degradation B16F10.4 PTPN2; assay type: cell-based; conditions: 24.0 hours
T2 construct: HiBiT; host or cells: B16F10.4
T2 sequence (Q06180 1-406): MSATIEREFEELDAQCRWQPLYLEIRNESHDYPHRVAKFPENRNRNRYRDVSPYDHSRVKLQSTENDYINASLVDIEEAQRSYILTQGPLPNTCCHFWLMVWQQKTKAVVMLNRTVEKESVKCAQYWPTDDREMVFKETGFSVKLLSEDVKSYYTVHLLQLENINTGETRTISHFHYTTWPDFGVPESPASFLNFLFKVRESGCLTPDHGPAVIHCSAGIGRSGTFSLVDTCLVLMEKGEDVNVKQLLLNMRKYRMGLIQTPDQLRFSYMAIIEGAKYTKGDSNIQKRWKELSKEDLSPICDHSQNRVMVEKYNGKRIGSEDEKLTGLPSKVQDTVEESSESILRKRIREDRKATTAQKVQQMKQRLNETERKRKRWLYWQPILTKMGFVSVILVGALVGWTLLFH

SMILES	DC50 [1] [nM]	DC50 (PTPN2 (B16F10.4 cells)) [nM]
Cn1c(=O)n(C2CCC(=O)NC2=O)c2ccc([C@H]3CCN(C(=O)Nc4cccc(CS(=O)(=O)N5CC[C@H](Nc6cccc(-c7sc(C(=O)O)c(OCC(=O)O)c7Cl)c6)CC5(C)C)c4)CC3(F)F)cc21 (stereo partly drawn) [Example 168, 3-(carboxymethoxy)-4-chloro-5-(3-(((4S)-1-((3-((4R)-4-(1-(2,6-dioxopiperidin-3-yl)-3-methyl-2-oxo-2,3-dihydro-1H-benzo[d]imidazol-5-yl)-3,3-difluoropiperidine-1-carboxamido)benzyl)sulfonyl)-2,2-dimethylpiperidin-4-yl)amino)phenyl)thiophene-2-carboxylic acid]	50 to 200	< 50
Cn1c(=O)n(C2CCC(=O)NC2=O)c2ccc([C@@H]3CCN(C(=O)Nc4cccc(CS(=O)(=O)N5CC[C@H](Nc6cccc(-c7sc(C(=O)O)c(OCC(=O)O)c7Cl)c6)CC5(C)C)c4)CC3(F)F)cc21 (stereo partly drawn) [Example 169, 3-(carboxymethoxy)-4-chloro-5-(3-(((4S)-1-((3-((4S)-4-(1-(2,6-dioxopiperidin-3-yl)-3-methyl-2-oxo-2,3-dihydro-1H-benzo[d]imidazol-5-yl)-3,3-difluoropiperidine-1-carboxamido)benzyl)sulfonyl)-2,2-dimethylpiperidin-4-yl)amino)phenyl)thiophene-2-carboxylic acid]	< 50	< 50
Cn1c(=O)n(C2CCC(=O)NC2=O)c2ccc(C3CCN(C(=O)Nc4cccc(CS(=O)(=O)N5CC[C@H](Nc6cccc(-c7sc(C(=O)O)c(OCC(=O)O)c7Cl)c6)CC5(C)C)c4)CC3F)cc21 (stereo partly drawn) [Example 170, 3-(carboxymethoxy)-4-chloro-5-[3-[[(4S)-1-[[3-[[4-[1-(2,6-dioxo-3-piperidyl)-3-methyl-2-oxo-benzimidazol-5-yl]-3-fluoro-piperidine-1-carbonyl]amino]phenyl]methylsulfonyl]-2,2-dimethyl-4-piperidyl]amino]phenyl]thiophene-2-carboxylic acid]	< 50	< 50
Cn1c(=O)n(C2CCC(=O)NC2=O)c2ccc([C@H]3CCN(C(=O)Nc4cccc(CS(=O)(=O)N5CC[C@H](Nc6cccc(-c7sc(C(=O)O)c(OCC(=O)O)c7Cl)c6)CC5(C)C)c4)C[C@@H]3F)cc21 (stereo partly shown) [Example 171]	< 50	< 50
O=C(O)COc1c(C(=O)O)sc(-c2cccc(NC3CCN(S(=O)(=O)Cc4cccc(NC(=O)N5CCC(c6ccc7c8c(cccc68)C(=O)N7C6CCC(=O)NC6=O)CC5)c4)CC3)c2)c1Cl (stereo not shown) [Example 173, 3-(carboxymethoxy)-4-chloro-5-[3-[[1-[[3-[[4-[1-(2,6-dioxo-3-piperidyl)-2-oxo-benzo[cd]indol-6-yl]piperidine-1-carbonyl]amino]phenyl]methylsulfonyl]-4-piperidyl]amino]phenyl]thiophene-2-carboxylic acid]	50 to 200	< 50
Cn1c(=O)n(C2CCC(=O)NC2=O)c2ccc(N3CCC(CCNC(=O)Nc4cccc(CS(=O)(=O)N5CC[C@H](Nc6cccc(-c7sc(C(=O)O)c(OCC(=O)O)c7Cl)c6)CC5(C)C)c4)CC3)cc21 (stereo partly drawn) [Example 174, 3-(carboxymethoxy)-4-chloro-5-[3-[[(4S)-1-[[3-[2-[1-[1-(2,6-dioxo-3-piperidyl)-3-methyl-2-oxo-benzimidazol-5-yl]-4-piperidyl]ethylcarbamoylamino]phenyl]methylsulfonyl]-2,2-dimethyl-4-piperidyl]amino]phenyl]thiophene-2-carboxylic acid]	< 50	50 to 200
Cn1c(=O)n(C2CCC(=O)NC2=O)c2ccc(CC3CCN(C(=O)Nc4cccc(CS(=O)(=O)N5CC[C@H](Nc6cccc(-c7sc(C(=O)O)c(OCC(=O)O)c7Cl)c6)CC5(C)C)c4)CC3)cc21 (stereo partly drawn) [Example 175, 3-(carboxymethoxy)-4-chloro-5-[3-[[(4S)-1-[[3-[[4-[[1-(2,6-dioxo-3-piperidyl)-3-methyl-2-oxo-benzimidazol-5-yl]methyl]piperidine-1-carbonyl]amino]phenyl]methylsulfonyl]-2,2-dimethyl-4-piperidyl]amino]phenyl]thiophene-2-carboxylic acid]	50 to 200	< 50
CC(C)n1c(=O)n(C2CCC(=O)NC2=O)c2ccc(C3CCN(CC(=O)Nc4cccc(CS(=O)(=O)N5CC[C@H](Nc6cccc(-c7sc(C(=O)O)c(OCC(=O)O)c7Cl)c6)CC5(C)C)c4)CC3(F)F)cc21 (stereo partly drawn) [Example 176, 3-(carboxymethoxy)-4-chloro-5-[3-[[(4S)-1-[[3-[[2-[4-[1-(2,6-dioxo-3-piperidyl)-3-isopropyl-2-oxo-benzimidazol-5-yl]-3,3-difluoro-1-piperidyl]acetyl]amino]phenyl]methylsulfonyl]-2,2-dimethyl-4-piperidyl]amino]phenyl]thiophene-2-carboxylic acid]	50 to 200	50 to 200
CC1(C)C[C@@H](Nc2cccc(-c3sc(C(=O)O)c(OCC(=O)O)c3Cl)c2)CCN1S(=O)(=O)Cc1cccc(NC(=O)NCCCc2ccc3c4c(cccc24)N(C2CCC(=O)NC2=O)C3=O)c1 (stereo partly drawn) [Example 177, 3-(carboxymethoxy)-4-chloro-5-[3-[[(4S)-1-[3-[3-[[1-(2,6-dioxo-3-piperidyl)-2-oxo-benzo[cd]indol-5-yl]propylcarbamoylamino]phenyl]methylsulfonyl]-2,2-dimethyl-4-piperidyl]amino]phenyl]thiophene-2-carboxylic acid]	50 to 200	50 to 200
Cn1c(=O)n(C2CCC(=O)NC2=O)c2ccc(-c3ccc(CC(=O)Nc4cccc(CS(=O)(=O)N5CC[C@H](Nc6cccc(-c7sc(C(=O)O)c(OCC(=O)O)c7Cl)c6)CC5(C)C)c4)cc3F)cc21 (stereo partly drawn) [Example 178, 3-(carboxymethoxy)-4-chloro-5-(3-(((4S)-1-((3-(2-(4-(1-(2,6-dioxopiperidin-3-yl)-3-methyl-2-oxo-2,3-dihydro-1H-benzo[d]imidazol-5-yl)-3-fluorophenyl)acetamido)benzyl)sulfonyl)-2,2-dimethylpiperidin-4-yl)amino)phenyl)thiophene-2-carboxylic acid]	50 to 200	50 to 200
Cn1c(=O)n(C2CCC(=O)NC2=O)c2ccc(N3CCC(O)(CC(=O)Nc4cccc(CS(=O)(=O)N5CC[C@@H](Nc6cccc(-c7sc(C(=O)O)c(OCC(=O)O)c7Cl)c6)CC5(C)C)c4)CC3)cc21 (stereo partly drawn) [Example 179, 3-(carboxymethoxy)-4-chloro-5-(3-(((4R)-1-((3-(2-(1-(1-(2,6-dioxopiperidin-3-yl)-3-methyl-2-oxo-2,3-dihydro-1H-benzo[d]imidazol-5-yl)-4-hydroxypiperidin-4-yl)acetamido)benzyl)sulfonyl)-2,2-dimethylpiperidin-4-yl)amino)phenyl)thiophene-2-carboxylic acid]	200 to 1000	200 to 1000
CC(C)n1c(=O)n(C2CCC(=O)NC2=O)c2ccc(C3CCN(C(=O)Nc4cccc(CS(=O)(=O)N5CC[C@H](Nc6cccc(-c7sc(C(=O)O)c(OCC(=O)O)c7Cl)c6)CC5(C)C)c4)CC3(F)F)cc21 (stereo partly drawn) [Example 181, 3-(carboxymethoxy)-4-chloro-5-[3-[[(4S)-1-[[3-[[4-[1-(2,6-dioxo-3-piperidyl)-3-isopropyl-2-oxo-benzimidazol-5-yl]-3,3-difluoro-piperidine-1-carbonyl]amino]phenyl]methylsulfonyl]-2,2-dimethyl-4-piperidyl]amino]phenyl]thiophene-2-carboxylic acid]	< 50	< 50
Cn1c(=O)n(C2CCC(=O)NC2=O)c2ccc(N3CCC(O)(CC(=O)Nc4cccc(CS(=O)(=O)N5CC[C@H](Nc6cccc(-c7sc(C(=O)O)c(OCC(=O)O)c7Cl)c6)CC5(C)C)c4)CC3)cc21 (stereo partly drawn) [Example 183, 3-(carboxymethoxy)-4-chloro-5-[3-[[(4S)-1-[[3-[[2-[1-[1-(2,6-dioxo-3-piperidyl)-3-methyl-2-oxo-benzimidazol-5-yl]-4-hydroxy-4-piperidyl]acetyl]amino]phenyl]methylsulfonyl]-2,2-dimethyl-4-piperidyl]amino]phenyl]thiophene-2-carboxylic acid]	50 to 200	50 to 200
Cn1c(=O)n(C2CCC(=O)NC2=O)c2ccc(C3CN(CC(=O)Nc4cccc(CS(=O)(=O)N5CC[C@H](Nc6cccc(-c7sc(C(=O)O)c(OCC(=O)O)c7Cl)c6)CC5(C)C)c4)C3)cc21 (stereo partly shown) [Example 184]	< 50	50 to 200
